Reference: PMC6777825, “Differential scanning fluorimetric analysis of the amino-acid binding to taste receptor using a model receptor protein, the ligand-binding domain of fish T1r2a/T1r3” (PLoS ONE, 2019)
Like-named read-outs stand apart in the source and are kept apart here.

Tests used:
[1] = target: T1, T1r2a/T1r3 full-length receptor (Oryzias latipes, UniProt A0A173M094+A0A173M0G2); set-up: method as in PMID 28534491; conditions: ref [11]; cited from earlier work
medaka T1r2a/T1r3LBD = medaka T1r2a/T1r3LBD (Oryzias latipes, UniProt A0A173M094+A0A173M0G2); assay: Differential scanning fluorimetry (DSF) thermal shift ligand-binding assay; set-up: species or system O. latipes; conditions: for ΔTm: average ± s.e.m., n = 4; for effect on thermal stability / Tm shift of T1r2a/T1r3LBD (in words): DSF, 0.1-10 mM amino acid
Sequence of medaka T1r2a/T1r3LBD (A0A173M094 entry or part of it): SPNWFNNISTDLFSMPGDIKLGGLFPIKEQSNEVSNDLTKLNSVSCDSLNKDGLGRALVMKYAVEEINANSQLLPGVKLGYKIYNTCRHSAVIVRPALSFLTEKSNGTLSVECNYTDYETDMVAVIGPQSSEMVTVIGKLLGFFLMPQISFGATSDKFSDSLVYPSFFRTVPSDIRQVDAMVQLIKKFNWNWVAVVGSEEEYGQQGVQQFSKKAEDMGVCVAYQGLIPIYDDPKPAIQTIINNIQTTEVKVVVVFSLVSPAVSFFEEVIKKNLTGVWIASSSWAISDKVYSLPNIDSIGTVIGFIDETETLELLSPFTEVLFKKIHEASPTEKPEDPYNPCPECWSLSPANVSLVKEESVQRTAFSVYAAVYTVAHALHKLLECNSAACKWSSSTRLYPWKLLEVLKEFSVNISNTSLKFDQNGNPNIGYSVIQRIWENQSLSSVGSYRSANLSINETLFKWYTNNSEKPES
Sequence of medaka T1r2a/T1r3LBD (A0A173M0G2 entry or part of it): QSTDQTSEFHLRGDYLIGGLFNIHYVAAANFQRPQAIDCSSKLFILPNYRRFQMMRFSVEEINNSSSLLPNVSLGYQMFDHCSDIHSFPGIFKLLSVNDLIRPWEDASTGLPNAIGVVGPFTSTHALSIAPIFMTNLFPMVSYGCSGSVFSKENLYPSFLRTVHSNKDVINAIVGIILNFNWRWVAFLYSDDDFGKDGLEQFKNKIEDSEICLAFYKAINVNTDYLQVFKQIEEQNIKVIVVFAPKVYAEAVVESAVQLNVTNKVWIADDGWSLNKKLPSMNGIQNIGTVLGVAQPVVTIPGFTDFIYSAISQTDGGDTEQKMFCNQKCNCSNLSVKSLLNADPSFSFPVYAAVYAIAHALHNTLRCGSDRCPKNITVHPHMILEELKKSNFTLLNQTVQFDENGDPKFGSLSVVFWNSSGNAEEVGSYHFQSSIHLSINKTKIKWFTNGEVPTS
Description: The protein sample was prepared as described previously. Briefly, Drosophila S2 cells (Invitrogen) stably expressing C-terminal FLAG-tagged T1r2aLBD and T1r3LBD [11, 21] were cultured in ExpressFiveSFM (LifeTechnologies) for five days at 27 °C. The T1r2a/T1r3-LBD protein was purified from the culture medium by the use of ANTI-FLAG M2 Affinity Gel (SIGMA). The purified protein was dialyzed against the assay buffer (20 mM Tris-HCl, 300 mM NaCl, 2 mM CaCl2, pH 8.0).
The protein sample (~1 μg) was mixed with Protein Thermal Shift Dye (Applied Biosystems) and 10~10,000 μM concentration of each amino acid in 20 μL of assay buffer and loaded to a MicroAmpR Fast Optical 48-Well Reaction Plate (Applied Biosystems). Specifically, to minimize the changes of the chemical and optical condition, the amino acid solutions were prepared by the exact same buffer used for the final dialysis of the protein, followed by the re-adjustment of the pH to ~ 8.0 by addition of either NaOH or HCl, and mixed with the protein diluted with the same buffer.
Fluorescent intensity was measured by the StepOne Real-Time PCR System (Applied Biosystems). The temperature was raised from 25 °C to 99 °C with a velocity of 0.022 °C/sec. The reporter and quencher for detection were set as “ROX” and “none”, respectively. Apparent melting transition temperature (Tm) was determined by the use of the maximum of the derivatives of the melt curve (dFluorescence/dT) by Protein Thermal Shift Software version 1.3 (Applied Biosystems).
The apparent dissociation constant (Kd-app) derived from the DSF results was estimated based on Eq 1 proposed by Schellman, assuming that the unfolding of the protein is reversible: ΔTm=Tm−T0=TmT0R/ΔH^0ln(1+[L]/Kd-app) (1) where [L] is the ligand concentration; Tm and T0 are the apparent melting transition temperatures in the presence and absence of the ligand; R is the gas constant; ΔH^0 is the enthalpy of unfolding at T0, assuming that there are no significant variations under the tested conditions. If the melt curves show biphasic profiles, the second (or the right side) Tm values were adopted for calculation, as described in the Results section.
For multiple regression analyses shown in Fig 2B, the apparent Tm values determined at different ligand concentrations were fitted to Eq 1 by using KaleidaGraph (Synergy Software), assuming that the change of the dissociation constant accompanied by the Tm shift is negligible.

[2] = target: T1, T1r2a/T1r3 full-length receptor; assay: Ca2+-flux receptor response assay in Flip-In 293 cells stably expressing full-length T1r2a, T1r3 and Gα16-gust44; format: cell-based, O. latipes; conditions: for ΔRFU: average ± s.e.m.
Description: The Ca^2+-flux assay was performed using Flip-In 293 cell line (Life Technologies) stably expressing full-length T1r2a, T1r3, and Gα16-gust44 as described previously. The response stimulated by either 5 or 10 mM amino acid was represented asΔRFU (delta relative fluorescence unit) defined as the maximum fluorescence intensity induced by the addition of the amino acid, subtracted with that of an assay buffer in the absence of amino acid.

T1r2a/T1r3LBD = system: T1r2a/T1r3LBD; set-up: method as in Nuemket, Yasui, et al. [11]; conditions: ref Nuemket, Yasui, et al. [11]; read-out: FRET EC50; cited from earlier work
[3] = cited from earlier work; for Hydropathy Index: hydrophobicity/hydrophilicity, ref Kyte & Doolittle, J. Mol. Biol., 157, 105 (1982); for pI: ref Handbook of Chemistry and Physics, CRC Press; for logKd_CW (polarity): transfer from cyclohexane to an aqueous solution, ref Radzicka & Wolfenden, Biochemistry, 27, 1664 (1988); for Es'c (steric effects) / πα (hydrophobicity) / HP (hydration potential): α-substituent group; for Es'c (steric effects) / πα (hydrophobicity): ref Akamatsu et al., J. Pharm. Sci., 83, 1026 (1994); for HP (hydration potential): ref Wolfenden et al., Biochemistry, 20, 849 (1981)
[4] = Tm at 8 or 9 ligand concentrations fitted to Eq 1 (Schellman), fitted parameter ± s.e., read-out: DSF Kd-app
[5] = from ΔTm at 10 mM via Eq 1, T0 326.1 K, ΔH0 72.1 kcal mol-1, read-out: Kd-app estimated at a single ligand concentration
[6] = log 1/Kd-app, converted from S1 Table values (10 mM; L-Ala 1 mM, L-Gln 0.1 mM)
[7] = 5 mM amino acid, n = 6 (n = 12 for L-glutamine)
[8] = estimated from ΔRFU at 5 mM by Hill equation, ΔRFUmax 104.3, read-out: EC50-est
[9] = estimated from ΔRFU at 10 mM by Hill equation, ΔRFUmax 104.3, read-out: EC50-est
[10] = from response at 5 mM, log 1/EC50-est
[11] = from response at 10 mM, log 1/EC50-est
[12] = read-out: Kd-app estimated at a single ligand concentration, from ΔTm at 0.1 mM via Eq 1, T0 326.1 K, ΔH0 72.1 kcal mol-1
[13] = read-out: Kd-app estimated at a single ligand concentration, from ΔTm at 1 mM via Eq 1, T0 326.1 K, ΔH0 72.1 kcal mol-1
[14] = read-out: Kd-app estimated at a single ligand concentration, from ΔTm at 10 mM via Eq 1, T0 326.1 K, ΔH0 72.1 kcal mol-1
[15] = from response at 10 mM, log 1/EC50-est, read-out: pEC50-est (converted)
[16] = from ΔTm at 0.1 mM via Eq 1, T0 326.1 K, ΔH0 72.1 kcal mol-1, read-out: Kd-app estimated at a single ligand concentration
[17] = from ΔTm at 1 mM via Eq 1, T0 326.1 K, ΔH0 72.1 kcal mol-1, read-out: Kd-app estimated at a single ligand concentration

T1 sequence (A0A173M0G2 entry or part of it): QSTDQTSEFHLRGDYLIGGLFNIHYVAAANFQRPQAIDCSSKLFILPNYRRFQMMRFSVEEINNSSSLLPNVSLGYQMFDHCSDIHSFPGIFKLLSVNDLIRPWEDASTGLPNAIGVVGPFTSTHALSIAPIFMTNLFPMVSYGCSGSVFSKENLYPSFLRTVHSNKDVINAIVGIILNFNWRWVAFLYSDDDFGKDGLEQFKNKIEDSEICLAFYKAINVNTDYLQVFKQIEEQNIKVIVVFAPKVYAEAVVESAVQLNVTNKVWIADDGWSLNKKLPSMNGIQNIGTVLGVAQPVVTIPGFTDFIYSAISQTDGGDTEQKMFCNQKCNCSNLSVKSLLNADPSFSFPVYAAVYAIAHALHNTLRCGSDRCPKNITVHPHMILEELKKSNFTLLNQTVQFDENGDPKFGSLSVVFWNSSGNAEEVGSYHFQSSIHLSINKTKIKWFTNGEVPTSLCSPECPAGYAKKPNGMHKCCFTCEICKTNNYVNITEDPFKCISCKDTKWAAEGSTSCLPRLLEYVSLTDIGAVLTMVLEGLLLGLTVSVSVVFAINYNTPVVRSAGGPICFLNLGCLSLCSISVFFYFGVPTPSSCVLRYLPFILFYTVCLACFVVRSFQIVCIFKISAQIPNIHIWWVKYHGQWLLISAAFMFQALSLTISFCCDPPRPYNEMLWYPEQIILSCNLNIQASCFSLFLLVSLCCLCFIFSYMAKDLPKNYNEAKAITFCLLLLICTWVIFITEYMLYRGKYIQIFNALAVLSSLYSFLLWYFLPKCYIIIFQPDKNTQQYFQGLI
T1 sequence (A0A173M094 entry or part of it): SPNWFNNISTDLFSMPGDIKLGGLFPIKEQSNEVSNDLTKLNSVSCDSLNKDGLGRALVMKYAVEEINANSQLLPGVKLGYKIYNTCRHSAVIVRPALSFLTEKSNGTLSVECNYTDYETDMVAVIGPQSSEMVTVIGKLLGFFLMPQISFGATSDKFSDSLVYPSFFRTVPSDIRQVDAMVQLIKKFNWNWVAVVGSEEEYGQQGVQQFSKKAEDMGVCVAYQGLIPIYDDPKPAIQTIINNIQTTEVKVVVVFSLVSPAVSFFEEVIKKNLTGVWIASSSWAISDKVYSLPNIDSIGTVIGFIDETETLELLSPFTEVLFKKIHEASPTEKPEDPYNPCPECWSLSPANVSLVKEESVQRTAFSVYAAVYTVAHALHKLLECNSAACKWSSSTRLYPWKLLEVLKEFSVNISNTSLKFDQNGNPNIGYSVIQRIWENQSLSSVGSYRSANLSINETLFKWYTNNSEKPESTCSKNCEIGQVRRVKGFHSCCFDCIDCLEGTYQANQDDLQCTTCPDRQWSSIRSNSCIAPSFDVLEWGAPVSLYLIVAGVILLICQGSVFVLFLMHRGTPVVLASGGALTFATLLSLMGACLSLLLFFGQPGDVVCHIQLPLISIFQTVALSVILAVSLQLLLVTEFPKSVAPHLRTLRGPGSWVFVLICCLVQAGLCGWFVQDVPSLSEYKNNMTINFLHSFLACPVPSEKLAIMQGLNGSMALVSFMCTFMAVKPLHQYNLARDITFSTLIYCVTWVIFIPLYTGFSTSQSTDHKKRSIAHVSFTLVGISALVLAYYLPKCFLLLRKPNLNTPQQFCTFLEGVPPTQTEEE

SMILES	ΔTm (medaka T1r2a/T1r3LBD; 0.1 mM amino acid) [K]	ΔTm (medaka T1r2a/T1r3LBD; 1 mM amino acid) [K]	ΔTm (medaka T1r2a/T1r3LBD; 10 mM amino acid) [K]	Kd (medaka T1r2a/T1r3LBD; [4]) [µM]	potency estimated from few doses (medaka T1r2a/T1r3LBD; [5]) [µM]	pKd-app (medaka T1r2a/T1r3LBD; [6])	ΔRFU [2, 7]	ΔRFU ([2]; 10 mM amino acid, n = 6)	EC50 [2, 8] [µM]	EC50 [2, 9] [µM]	pEC50-est [2, 11]	EC50 (T1r2a/T1r3LBD) [µM]	Hydropathy Index [3]	pI [3]	logKd_CW (polarity) [3]	Es'c (steric effects) [3]	πα (hydrophobicity) [3]	HP (hydration potential) [3]	potency estimated from few doses (medaka T1r2a/T1r3LBD; [16]) [µM]	further results
NC(=O)CCC(N)C(=O)O (stereo in doubt) [D-glutamine]	–	–	–	–	–	–	–	–	–	–	–	–	–	–	–	–	–	–	–	full-length receptor response (in words) [1]: significantly weak responses
NCC(=O)O [Gly, glycine]	-0.04 ± 0.12	-0.15 ± 0.07	5.08 ± 0.06	3570 ± 4090	2220	2.65	13.4 ± 3.45	46.2 ± 9.00	33800	12600	1.90	6180 ± 3320	–	–	–	–	–	–	–	pEC50-est [2, 10]: 1.47
C[C@H](N)C(=O)O [L-Ala, L-alanine]	0.41 ± 0.09	6.92 ± 0.03	11.1 ± 0.02	54.1 ± 24.5	–	–	64.7 ± 12.8	90.8 ± 9.46	3060	1490	–	141 ± 37	1.8	6	-1.33	-0.2	0.28	1.94	–	effect on thermal stability / Tm shift of T1r2a/T1r3LBD (in words) (medaka T1r2a/T1r3LBD): exhibited large Tm shifts; Kd-app fold difference compared with FRET EC50 (medaka T1r2a/T1r3LBD; Kd-app from 0.1 mM): 4.71 fold; Kd-app fold difference compared with FRET EC50 (medaka T1r2a/T1r3LBD; Kd-app from 1 mM): 0.782 fold; Kd-app fold difference compared with FRET EC50 (medaka T1r2a/T1r3LBD; Kd-app from 10 mM): 1.91 fold; potency estimated from few doses (medaka T1r2a/T1r3LBD; [12]): 664 µM; potency estimated from few doses (medaka T1r2a/T1r3LBD; [13]): 110 µM; potency estimated from few doses (medaka T1r2a/T1r3LBD; [14]): 269 µM; EC50 ([2]; from response at 5 mM, log 1/EC50-est, read-out: pEC50-est (converted)): 3090 µM; EC50 [2, 15]: 1480 µM
N=C(N)NCCC[C@H](N)C(=O)O [L-Arg, arginine]	0.45 ± 0.17	6.98 ± 0.08	11.0 ± 0.05	–	–	–	68.2 ± 5.39	63.4 ± 9.85	–	–	–	190 ± 35	-4.5	10.76	4.32	-0.82	-0.42	-19.92	–	Kd (medaka T1r2a/T1r3LBD; DSF Kd-app, Tm at 8 or 9 ligand concentrations fitted to Eq 1 (Schellman), fitted parameter ± s.e.): 131 ± 66 µM; effect on thermal stability / Tm shift of T1r2a/T1r3LBD (in words) (medaka T1r2a/T1r3LBD): thermally stabilized the protein; Kd-app fold difference compared with FRET EC50 (medaka T1r2a/T1r3LBD; Kd-app from 0.1 mM): 3.20 fold; Kd-app fold difference compared with FRET EC50 (medaka T1r2a/T1r3LBD; Kd-app from 1 mM): 0.568 fold; Kd-app fold difference compared with FRET EC50 (medaka T1r2a/T1r3LBD; Kd-app from 10 mM): 1.44 fold; Kd (medaka T1r2a/T1r3LBD; pKd-app, log 1/Kd-app, converted from S1 Table values (10 mM; L-Ala 1 mM, L-Gln 0.1 mM)): 275 µM; potency estimated from few doses (medaka T1r2a/T1r3LBD; [12]): 608 µM; potency estimated from few doses (medaka T1r2a/T1r3LBD; [13]): 108 µM; potency estimated from few doses (medaka T1r2a/T1r3LBD; [14]): 274 µM; EC50 ([2]; EC50-est, estimated from ΔRFU at 5 mM by Hill equation, ΔRFUmax 104.3): 2650 µM; EC50 ([2]; EC50-est, estimated from ΔRFU at 10 mM by Hill equation, ΔRFUmax 104.3): 6440 µM; EC50 ([2]; pEC50-est, from response at 5 mM, log 1/EC50-est): 2630 µM; EC50 ([2]; pEC50-est, from response at 10 mM, log 1/EC50-est): 6460 µM
NC(=O)CC[C@H](N)C(=O)O [L-Gln, L-glutamine]	6.26 ± 0.06	10.80 ± 0.05	13.6 ± 0.02	30.9 ± 5.8	119	–	104.3 ± 4.24	81.0 ± 4.64	–	2880	–	11.5 ± 3.4	–	–	–	–	–	–	14.1	increase of Tm (ΔTm), second Tm (medaka T1r2a/T1r3LBD; 300 μM ligand): 8.7 ± 0.1 °C; potency estimated from few doses (medaka T1r2a/T1r3LBD; [17]): 29.2 µM; Kd (medaka T1r2a/T1r3LBD; log 1/Kd-app, converted from S1 Table values (10 mM; L-Ala 1 mM, L-Gln 0.1 mM), read-out: pKd-app (converted)): 14.1 µM; ΔRFU ([2]; 5 mM amino acid, n = 6 (n = 12 for L-glutamine), listed as L-glutamine): 104.3; EC50 [2, 15]: 2880 µM
N[C@@H](CCC(=O)O)C(=O)O [L-Glu, glutamate]	0.55 ± 0.26	0.48 ± 0.14	7.06 ± 0.08	422 ± 211	1050	2.98	3.73 ± 1.63	30.3 ± 1.85	–	24400	1.61	1070 ± 382	–	3.22	2.25	-0.82	0.02	-10.2	488	potency estimated from few doses (medaka T1r2a/T1r3LBD; [17]): 5700 µM
N[C@@H](CO)C(=O)O [L-Ser]	-0.14 ± 0.03	-1.20 ± 0.03	7.32 ± 0.06	–	956	3.02	11.5 ± 2.07	33.5 ± 7.59	40500	21100	1.67	–	-0.8	5.68	2.49	-0.48	-0.19	-5.06	–	pEC50-est [2, 10]: 1.39
C[C@@H](O)[C@H](N)C(=O)O [L-Thr]	-0.06 ± 0.09	-1.27 ± 0.08	6.99 ± 0.09	–	1080	2.97	3.20 ± 1.51	18.2 ± 6.01	–	47400	1.32	–	-0.7	5.6	1.89	-0.73	0.07	-4.88	–	–
CC(C)[C@H](N)C(=O)O [L-Val]	0.11 ± 0.24	-0.77 ± 0.14	7.85 ± 0.03	–	793	3.10	3.89 ± 1.23	32.4 ± 7.56	–	22200	1.65	–	4.2	5.96	-2.97	-1.29	1	1.99	2630	–
